Data taken from ChEMBL document CHEMBL1147757, “Design and preparation of 2-benzamido-pyrimidines as inhibitors of IKK” (Bioorg Med Chem Lett, 2006).

Experiments:
[1] = biological target: T1, Inhibitor of nuclear factor kappa-B kinase subunit beta (Homo sapiens, UniProt O14920); test: Inhibitory activity against IKK2
T1 sequence (O14920 whole entry): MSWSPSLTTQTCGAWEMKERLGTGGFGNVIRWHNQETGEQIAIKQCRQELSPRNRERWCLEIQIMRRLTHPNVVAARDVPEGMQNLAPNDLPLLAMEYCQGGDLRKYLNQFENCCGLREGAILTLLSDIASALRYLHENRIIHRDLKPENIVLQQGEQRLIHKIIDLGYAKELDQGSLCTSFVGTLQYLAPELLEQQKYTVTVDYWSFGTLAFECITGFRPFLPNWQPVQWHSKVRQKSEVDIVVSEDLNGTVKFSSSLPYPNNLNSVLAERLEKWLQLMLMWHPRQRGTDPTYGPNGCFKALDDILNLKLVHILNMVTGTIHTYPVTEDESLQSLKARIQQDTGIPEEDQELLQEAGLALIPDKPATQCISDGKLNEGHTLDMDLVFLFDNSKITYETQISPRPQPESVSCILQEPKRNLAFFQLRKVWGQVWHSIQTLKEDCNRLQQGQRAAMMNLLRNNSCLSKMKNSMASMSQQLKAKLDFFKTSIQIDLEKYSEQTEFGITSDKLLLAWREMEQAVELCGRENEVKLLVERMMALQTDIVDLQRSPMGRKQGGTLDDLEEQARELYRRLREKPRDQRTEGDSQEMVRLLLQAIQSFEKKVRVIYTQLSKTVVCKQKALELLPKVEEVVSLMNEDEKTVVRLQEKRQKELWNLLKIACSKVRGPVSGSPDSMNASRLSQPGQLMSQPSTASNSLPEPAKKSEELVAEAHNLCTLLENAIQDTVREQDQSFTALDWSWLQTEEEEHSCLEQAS

[2] = biological target: T2, Inhibitor of NF-kappa-B kinase (IKK) (Homo sapiens, UniProt O14920+O15111+Q9Y6K9); test: Inhibition of TNF-alpha-stimulated IkappaBalpha degradation; type: functional
T2 sequence (Q9Y6K9 whole entry, one chain of several): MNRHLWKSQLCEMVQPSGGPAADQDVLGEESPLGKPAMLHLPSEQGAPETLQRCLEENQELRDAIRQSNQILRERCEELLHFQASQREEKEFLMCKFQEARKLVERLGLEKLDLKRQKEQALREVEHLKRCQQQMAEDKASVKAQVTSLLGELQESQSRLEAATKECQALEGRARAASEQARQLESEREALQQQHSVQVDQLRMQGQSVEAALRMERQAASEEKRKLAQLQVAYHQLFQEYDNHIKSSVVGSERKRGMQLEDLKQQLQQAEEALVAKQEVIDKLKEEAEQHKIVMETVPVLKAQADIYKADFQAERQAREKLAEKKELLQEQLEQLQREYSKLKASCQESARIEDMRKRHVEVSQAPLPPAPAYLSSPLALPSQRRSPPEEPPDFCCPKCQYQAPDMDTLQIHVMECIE

[3] = biological target: T2, Inhibitor of NF-kappa-B kinase (IKK); test: Inhibition of TNF-alpha-stimulated expression of ICAM1 in HUVEC cells; type: functional, cell-based
[4] = biological target: T3, Inhibitor of nuclear factor kappa-B kinase subunit alpha (Homo sapiens, UniProt O15111); test: Inhibitory activity against IKK1
T3 sequence (O15111 whole entry): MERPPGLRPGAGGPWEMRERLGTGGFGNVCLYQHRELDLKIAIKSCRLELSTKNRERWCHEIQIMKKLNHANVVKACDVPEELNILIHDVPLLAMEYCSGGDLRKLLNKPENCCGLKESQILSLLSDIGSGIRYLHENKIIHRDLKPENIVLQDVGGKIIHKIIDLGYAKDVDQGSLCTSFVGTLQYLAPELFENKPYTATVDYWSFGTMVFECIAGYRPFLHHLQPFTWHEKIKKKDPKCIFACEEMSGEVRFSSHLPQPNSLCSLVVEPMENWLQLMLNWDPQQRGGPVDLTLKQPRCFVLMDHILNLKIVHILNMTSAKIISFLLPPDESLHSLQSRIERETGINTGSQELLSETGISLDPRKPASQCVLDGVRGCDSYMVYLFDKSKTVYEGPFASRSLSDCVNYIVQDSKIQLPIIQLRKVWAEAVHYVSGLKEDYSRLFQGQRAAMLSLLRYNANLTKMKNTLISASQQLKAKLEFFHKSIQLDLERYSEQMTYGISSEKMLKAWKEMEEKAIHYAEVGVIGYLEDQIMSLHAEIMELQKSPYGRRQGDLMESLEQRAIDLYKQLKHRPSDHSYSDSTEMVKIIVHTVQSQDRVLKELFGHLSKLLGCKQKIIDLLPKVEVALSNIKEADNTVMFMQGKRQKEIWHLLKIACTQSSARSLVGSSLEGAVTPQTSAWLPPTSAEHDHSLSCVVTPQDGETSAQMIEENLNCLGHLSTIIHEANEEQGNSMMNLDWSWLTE

[5] = Inhibition of IFN-gamma-stimulated expression of beta-2 microglobulin; type: functional
[6] = biological target: T2, Inhibitor of NF-kappa-B kinase (IKK); test: Inhibition of TNF-alpha-stimulated expression of E-selectin in HUVEC cells; type: functional, cell-based
[7] = Inhibition of IFN-gamma-stimulated expression of HLA-DR; type: functional
[8] = biological target: T2, Inhibitor of NF-kappa-B kinase (IKK); test: Inhibitory activity against IKK complex isolated from HeLa cells; type: cell-based
[9] = biological target: T2, Inhibitor of NF-kappa-B kinase (IKK); test: Inhibition of TNF-alpha-stimulated expression of VCAM1 in HUVEC cells; type: functional, cell-based
Mus musculus = test: Inhibition of thioglycollate-induced polymorphonuclear neutrophil release in mouse peritoneum at 10 mg/kg, sc; type: functional; conditions: route subcutaneous
[10] = biological target: T2, Inhibitor of NF-kappa-B kinase (IKK); test: Inhibition of LPS-induced TNFalpha release from human PBMC; type: functional
Rattus norvegicus [11] = test: Inhibition of LPS-induced TNFalpha release into plasma in rat at 30 mg/kg, sc; type: functional; conditions: route subcutaneous
Rattus norvegicus [12] = test: Inhibition of LPS-induced TNFalpha release into plasma in rat at 30 mg/kg, po; type: functional

IC50 [1] [nM] | IC50 [2] [nM] | IC50 [3] [nM] | IC50 [4] [nM] | IC50 [5] [nM] | IC50 [6] [nM] | IC50 [7] [nM] | IC50 [8] [nM] | IC50 [9] [nM] | IC50 [10] [nM] | Compound | inhibition in vivo at 10 mg/kg (Mus musculus) [%] | inhibition in vivo at 30 mg/kg (Rattus norvegicus [11]) [%] | inhibition in vivo at 30 mg/kg (Rattus norvegicus [12]) [%]
> 100000 |  |  |  |  |  |  |  |  |  | CC(C)CCNC(=O)c1ccc(Nc2nccc(-c3cc4ccccc4s3)n2)cc1 |  |  | 
900 | 20000 | 2000 | 3800 | 10000 | 2000 | 250 | 8500 | 2000 |  | O=C(c1ccc(Nc2nccc(-c3cc4ccccc4s3)n2)cc1)N1CCCC1 |  |  | 
1000 |  |  |  |  |  |  |  |  |  | O=C(O)c1cccc(Nc2nccc(-c3cc4ccccc4s3)n2)c1 |  |  | 
400 |  |  | 1200 |  |  |  | 500 |  |  | O=C(NCCN1CCCC1)c1ccc(Nc2nccc(-c3cc4ccccc4s3)n2)cc1 |  |  | 
200 | 5000 | 500 | 1200 | 2000 | 500 |  | 300 | 500 |  | CN(C)CCNC(=O)c1ccc(Nc2nccc(-c3cc4ccccc4s3)n2)cc1 |  |  | 
100 | 1000 | 600 | 1000 | 5000 | 400 | 2000 | 100 | 500 |  | COCCCc1ccc(-c2ccnc(Nc3ccc(C(=O)N4CCC(N5CCCC5)CC4)cc3)n2)s1 |  |  | 
> 100000 |  |  | > 100000 |  |  |  | > 100000 |  |  | O=C(O)c1ccccc1Nc1nccc(-c2cc3ccccc3s2)n1 |  |  | 
40 | 1000 | 300 | 200 | 2000 | 500 | 2000 | 70 | 300 | 300 | O=C(c1ccc(Nc2nccc(-c3cc4ccccc4s3)n2)cc1)N1CCC(N2CCCC2)CC1 | 50 | 86 | 75
2200 |  |  |  |  |  |  |  |  |  | O=C(O)Cc1ccc(Nc2nccc(-c3cc4ccccc4s3)n2)cc1 |  |  | 
600 | 100000 | 50000 | 5000 | 100000 | 50000 | 100000 | 18000 | 50000 |  | O=C(O)c1ccc(Nc2nccc(-c3cc4ccccc4s3)n2)cc1 |  |  | 
150 |  |  | 30000 |  |  |  | 800 |  |  | CC(=O)NC(C)(C)CCc1ccc(-c2ccnc(Nc3ccc(C(=O)N4CCC(N5CCCC5)CC4)cc3)n2)s1 |  |  | 
40 |  |  | 30 |  |  |  | 40 |  |  | CC(C)(N)CCc1ccc(-c2ccnc(Nc3ccc(C(=O)N4CCC(N5CCCC5)CC4)cc3)n2)s1 |  |  | 
40 | 2000 | 400 | 150 | 2000 | 300 | 2000 | 80 | 400 |  | CN(C)C1CCN(C(=O)c2ccc(Nc3nccc(-c4cc5ccccc5s4)n3)cc2)CC1 |  |  | 
150 |  |  | 500 |  |  |  | 200 |  |  | CC(C)(N)C#Cc1ccc(-c2ccnc(Nc3ccc(C(=O)N4CCC(N5CCCC5)CC4)cc3)n2)s1 |  |  | 
600 |  |  | 3700 |  |  |  | 4400 |  |  | NCCNC(=O)c1ccc(Nc2nccc(-c3cc4ccccc4s3)n2)cc1 |  |  | 
50 |  |  | 100 |  |  |  | 150 |  |  | COc1cc(Nc2nccc(-c3cc4ccccc4s3)n2)ccc1C(=O)N1CCC(N2CCCC2)CC1 |  |  | 
90 |  |  | 400 |  |  |  | 250 |  |  | O=C(c1ccc(Nc2nccc(-c3cc4ccccc4s3)n2)cc1Cl)N1CCC(N2CCCC2)CC1 |  |  | 
25 | 2000 | 200 | 500 | 5000 | 200 | 2500 | 40 | 200 |  | O=C(c1ccc(Nc2nccc(-c3ccc(CCCCO)s3)n2)cc1)N1CCC(N2CCCC2)CC1 |  |  | 
60 |  |  | 30 |  |  |  | 30 |  |  | CCC(N)(CC)CCc1ccc(-c2ccnc(Nc3ccc(C(=O)N4CCC(N5CCCC5)CC4)cc3)n2)s1 |  |  | 

Compound | IC50 [1] [nM] | IC50 [2] [nM] | IC50 [3] [nM] | IC50 [4] [nM] | IC50 [5] [nM] | IC50 [6] [nM] | IC50 [7] [nM] | IC50 [8] [nM] | IC50 [9] [nM] | IC50 [10] [nM] | inhibition in vivo at 10 mg/kg (Mus musculus) [%] | inhibition in vivo at 30 mg/kg (Rattus norvegicus [11]) [%] | inhibition in vivo at 30 mg/kg (Rattus norvegicus [12]) [%]
CC(C)(O)CCc1ccc(-c2ccnc(Nc3ccc(C(=O)N4CCC(N5CCCC5)CC4)cc3)n2)s1 | 50 | 2000 | 500 | 700 | 5000 | 450 | 3000 | 50 | 600 |  |  |  | 
